# Results as given in patent US20240342169A1 (BETTA PHARMACEUTICALS CO., LTD, priority 2021, published 2024).
# Legend:
# [1] = molecular target: T1, MET(ex14Del) kinase (Homo sapiens, UniProt P08581, DEL963-1009); assay: Kinase inhibitory activity assay (ADP-Glo Kinase Assay Kit); type: biochemical; conditions: 60 minutes at 25° C., read-out: IC50 (half inhibitory concentration) for MET (ex14Del) kinase
# T1 construct: purchased Sinalchem (so in the source)
# Experimental: • MET(ex14Del) kinase(Sinalchem, M52-12PG); • ADP-Glo Kinase Assay Kit(Promega, V9102);
# And then serially diluted 9 times with DMSO at a volume ratio of 1:3 to make 10 concentrations of 100× compound working solution, the diluted compound solution was added to a 384-well plate at a volume of 0.1 μL/well. 5 μL enzyme working solution was added to the 384-well plate, centrifuged at 1000 rpm for 1 minute, incubated 15 minutes at 25° C. 5 μL substrate working solution was added to each well to make 10 concentrations of 1× compound working solution by 3-fold serial dilutions, in which the maximum concentration of the compound solution is 3000 nM, the reaction was triggered and incubated 60 minutes at 25° C. 10 μL ADP-Glo agent(Promega, V9102) was added to each well, centrifuged at 1000 rpm for 1 minute, incubated 15 minutes at 25° C., then 20 μL kinase detection reagent was added to each well, centrifuged at 1000 rpm for 1 minute. RLU (relative luminescence units) was read by Envision Multimode Plate Reader, the value of RLU was used to characterize the degree of reaction between enzyme and substrate, IC50 values were calculated by XLfit 5.3.1 nonlinear regression equation.
# [2] = tested on: stage IIIB/IV NSCLC carrying a MET exon 14 skipping mutation; assay: Clinical study in NSCLC patients carrying a MET exon 14 skipping mutation; type: in vivo, human; conditions: 225 mg orally once a day
# Source text: Inclusion Criteria: Male or female adults, aged >18 years; Patients had newly diagnosed histologically/cytologically confirmed stage IIIB/IV. NSCLC; Patients carrying a MET exon 14 skipping mutation; EGFR/ALK wild type; at least one measurable lesion.
# [3] = tested on: Hs746T Xenograft Model; assay: In vivo antitumor activity, Hs746T Xenograft Model; design: species or system BALB/c nude mice; conditions: for Tumor volume: 30 mg/kg intragastrically twice a day
# Source text: BALB/c nude mice provided by Shanghai Sipur-Bika Experimental Animal Co., Ltd: SPF grade animals, 6-8 weeks old, weighing 18-23 grams; gender: female; number: 18 mice in the group. • Antibiotic(penicillin, streptomycin): (Gibco, 15240-062). • Administration in solvent control group: Aqueous solution containing 0.5% HPMC and 0.4% Tween 80.
# In order to prepare a Hs746T Xenograft Model, BALB/c Nude mice were inoculated subcutaneously with Hs746T cells (harbor an MET exon 14 skipping mutation, provided by ATCC (American Type Cultural Collection)). […] Test compounds were administered intragastrically starting from group date, twice a day for 18 days. Safety evaluation was performed based on animal weight changes and death, and efficacy evaluation was performed based on relative tumor inhibition rate (TGI %).
# Human gastric cancer Hs746T cells were cultured single layer in vitro using DMEM medium containing […] and 1% antibiotic solution, and incubated in a 5% CO2, 37° C. incubator. The cells were subcultured traditionally twice a week. The cells were harvested when the confluence reached 80%-90% and the number of cells reaches the required level, and then the cells were counted and seeded.
# 3. Tumor Measurement and Experimental Indicators Tumor diameters were measured twice a week with vernier calipers. The formula for calculating tumor volume was: V=0.5a×b2, where a and b are the long and short diameters of the tumor, respectively.
# After the experiment, the tumor weight will be measured and TGI (%) will be calculated to reflect the rate of tumor growth inhibition. Calculation of TGI(%):TGI (%)=[1−(Average tumor volume at the end of administration in a certain treatment group−Average tumor volume at the beginning of administration in this treatment group)/(Average tumor volume at the end of treatment in the solvent control group−Average tumor volume at the beginning of treatment in the solvent control group)]×100%.
# [4] = tested on: Hs746T cells (harbor an MET exon 14 skipping mutation); assay: Cell proliferation inhibitory activity (CellTiter-Glo); type: cell-based; conditions: Homo sapiens, 168 hours incubation, CTG
# Experimental: • 1). Cells in logarithmic growth phase were harvested and counted using cell counter. Trypan blue exclusion test was used to measure the cell viability to make sure the cell viability is at least 90%.
# 2). Adjust cell concentration, 180 μL cell suspension was added to each well of the 96-well plate at a density of 1200 cells/well.
# 3). The 96-well plate was incubated overnight under 5% CO2 and 95% humidity conditions at 37° C.
# • 1). 20 μL PBS was added to each well of the seeded 96-well plate. • 2). CTG agent was melted and the cell plate was equilibrated to room temperature for 30 minutes. • 3). 100 μL CTG solution was added to each well. • 4). The plate was placed on an orbital shaker for 5 minutes to lyse the cells. • 5). The plate was placed at room temperature for 20 minutes to stabilize the luminescent signal. • 6). TO luminescence value (Lum) was recorded.
# • 1). CTG agent was melted and the cell plate was equilibrated to room temperature for 30 minutes. • 2). 100 μL CTG solution was added to each well. • 3). The plate was placed on an orbital shaker for 5 minutes to lyse the cells. • 4). […] Endpoint luminescence value (Lum) was recorded.
# The data were analyzed using GraphPad Prism 7.0, in order to calculate IC50, a dose-response curve was fitted using nonlinear regression model with a sigmoidal dose response. […]
# T1 sequence (P08581 with tags, fused parts or gaps DEL963-1009 limits assumed): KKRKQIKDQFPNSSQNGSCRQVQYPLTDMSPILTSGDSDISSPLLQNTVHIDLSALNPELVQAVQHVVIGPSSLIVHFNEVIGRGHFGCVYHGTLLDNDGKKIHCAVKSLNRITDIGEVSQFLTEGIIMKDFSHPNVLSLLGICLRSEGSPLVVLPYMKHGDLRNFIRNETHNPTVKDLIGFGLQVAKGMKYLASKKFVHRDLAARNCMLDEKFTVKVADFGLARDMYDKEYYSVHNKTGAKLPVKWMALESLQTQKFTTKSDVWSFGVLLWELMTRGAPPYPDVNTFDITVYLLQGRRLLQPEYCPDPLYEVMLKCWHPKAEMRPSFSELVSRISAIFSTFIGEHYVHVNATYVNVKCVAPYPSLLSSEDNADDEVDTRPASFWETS
smiles,measurement,setting,value
"C[C@@H]1CN(C(=O)c2ccc(NC(=O)c3cc(O[C@H](C)c4c(Cl)ccc(F)c4Cl)c(N)nn3)cc2)C[C@H](C)N1 [Ensartinib, ensartinib]",IC50,[1],7.6 nM
same,ORR (objective response rate),[2]; 12/17 patients,71%
same,DCR (disease control rate),[2]; 16/17 patients,94%
same,average tumor shrinkage rate,[2]; 17 patients,−37.7%
same,CR (complete response),[2]; among 17 patients,1 case
same,PR (partial response),[2]; among 17 patients,11 cases
same,Tumor growth in tumor-bearing mice (in words),[3]; 30 mg/kg intragastrically twice a day for 18 days,obvious tumor regression was observed
same,Tumor volume,[3]; Day 0 (start of dosing),128 ± 10 mm^3
same,Tumor volume,[3]; Day 3,109 ± 8 mm^3
same,Tumor volume,[3]; Day 7,101 ± 8 mm^3
same,Tumor volume,[3]; Day 10,74 ± 9 mm^3
same,Tumor volume,[3]; Day 14,49 ± 8 mm^3
same,Tumor volume,[3]; Day 17,29 ± 15 mm^3
same,IC50,[4],31 nM
